Test results from US8198317B2, “Methylenedioxy phenolic compounds and their use to treat disease” (The Ohio State University Research Foundation, priority 2008, dated 2012).

Tests used:
Assay type in all cases: in vivo, human
[1] = test system: Cardiovascular Patient; assay: Treatment of a cardiovascular patient with chest pain (Examples 8-10); conditions: 1.0 to 100 mg/kg
Description: A person presents with uncomfortable pressure, squeezing and pain in the center of their chest as well as in shoulders, arms, neck, jaw and back. […] After being evaluated with an angiography, they are diagnosed as suffering from atherosclerosis with plaque formation in the coronary arteries. The patient is administered a composition comprising an effective amount of 3,4-methylenedioxy-6-nitrophenyl acetate (INV 75) (1.0 to 100-mg/kg). Alternate therapies include, 3,4-methylenedioxy phenyl acetate (INV 73); 3,4-methylenedioxy-6-nitrophenol (INV 74; 3,4-Methylenedioxy 6-nitro phenyl lipoate (INV-7465) or 3,4-Methylenedioxy phenyl lipoate (INV-7065). The composition is optionally administered in conjunction with therapy such as administration of aspirin, a drug to reduce the tendency of platelet aggregation, such as clopidogrel bisulfate, a statin, an angiotensin converting enzyme inhibitor, and/or heparin or a combination thereof, using dosages known to one of ordinary skill in the art. Patient reports improvement in the chest pain, shortness of breath. They are again evaluated with an angiography to measure reduced plaque in their arteries.
A person presents with uncomfortable pressure, squeezing and pain in the center of their chest for less than 30 minutes. They are taken to the cardiac angiography suite for suspected unstable angina. […] After being evaluated with an angiography, they are diagnosed as suffering from atherosclerosis with plaque formation in the coronary arteries. The patient is administered a composition comprising an effective amount of 3,4-Methylenedioxy phenyl lipoate (INV-7065) (1.0 to 100 mg/kg). […] They are again evaluated with an angiography to measure reduced plaque in their arteries.
A person presents with uncomfortable pressure, squeezing and pain in the center of their chest for less than 30 minutes. […] After being evaluated with an angiography, they are diagnosed as suffering from atherosclerosis with plaque formation in the coronary arteries. […] They are again evaluated with an angiography to measure reduced plaque in their arteries.

[2] = test system: Patient; assay: Treatment of a patient with acute ST elevation myocardial infarction (Examples 13-15); conditions: 1.0 to 100 mg/kg intravenously
Description: A person presents with sudden chest pain typically radiating to the left arm or left side of the neck, shortness of breath, nausea and palpitation with vomiting and sweating. After being evaluated with an electrocardiogram (EKG, ECG), a chest X-ray and blood tests to detect elevations in cardiac markers (blood tests to detect heart muscle damage), they are diagnosed as suffering from acute ST elevation myocardial infarction. The patient is administered a composition comprising an effective amount of 3,4-methylenedioxy-6-nitrophenyl acetate (INV 75) (1.0 to 100 mg/kg) intravenously. The composition is optionally administered in conjunction with therapy such as thrombolytic drugs such as tissue plasminogen activator (tPA) or streptokinase and administration of aspirin, a drug to reduce the tendency of platelet aggregation, such as clopidogrel bisulfate, a statin, and/or heparin or a combination thereof, using dosages known to one of ordinary skill in the art. Patient reports improvement in the chest pain, shortness of breath and palpitations.
A person presents with sudden chest pain typically radiating to the left arm or left side of the neck, shortness of breath, nausea and palpitation with vomiting and sweating. After being evaluated with an electrocardiogram (EKG, ECG), a chest X-ray and blood tests to detect elevations in cardiac markers (blood tests to detect heart muscle damage), they are diagnosed as suffering from acute ST elevation myocardial infarction. The patient is administered a composition comprising an effective amount of 3,4-methylenedioxy-6-nitrophenyl acetate (INV 7465) (1.0 to 100 mg/kg) intravenously. […]
A person presents with sudden chest pain typically radiating to the left arm or left side of the neck, shortness of breath, nausea and palpitation with vomiting and sweating. After being evaluated with an electrocardiogram (EKG, ECG), a chest X-ray and blood tests to detect elevations in cardiac markers (blood tests to detect heart muscle damage), they are diagnosed as suffering from acute ST elevation myocardial infarction. […]

[3] = test system: Humans; assay: Treatment of atherosclerosis in humans, primary prevention (Example 22); conditions: oral, in excess of 12 months
Description: Individuals with risk factors for atherosclerosis such as family history, hypertension and high cholesterol are known to be at risk for future cardiovascular events such as heart attacks and strokes. These individuals are on primary prevention treatments such as hypolipidemic drug therapy such as statins aspirin and anti-hypertensive agents such as ACE inhibitors, diuretics or calcium channel blockers. They also will receive an acceptable dose of a composition comprising a compound of the present invention in an acceptable carrier orally chronically for durations in excess of 12 months. In one study, 3,4-methylenedioxy phenyl acetate (INV 73); 3,4-methylenedioxy-6-nitrophenol (INV 74); 3,4-methylenedioxy-6-nitrophenyl acetate (INV 75); 3,4-Methylenedioxy 6-nitro phenyl lipoate (INV-7465) or 3,4-Methylenedioxy phenyl lipoate (INV-7065) are administered to these individuals. A repeat IVUS measurement is made at the end of the treatment period to assess the effect of the infusion of the composition on coronary atherosclerosis in the target vessel.

Structure (SMILES) | chest pain, shortness of breath [1] | chest pain, shortness of breath and palpitations [2] | plaque in the atherosclerotic coronary artery (IVUS) [3]
CC(=O)Oc1cc2c(cc1[N+](=O)[O-])OCO2 [INV-75, 3,4-methylenedioxy-6-nitrophenyl acetate] | improvement | improvement | reduced
O=C(CCCCC1CCSS1)Oc1ccc2c(c1)OCO2 (stereo not drawn) [INV-7065, 3,4-Methylenedioxy phenyl lipoate] | improvement | improvement | reduced
O=C(CCCCC1CCSS1)Oc1cc2c(cc1[N+](=O)[O-])OCO2 (stereo not drawn) [INV-7465, 3,4-Methylenedioxy 6-nitro phenyl lipoate] | improvement | improvement | reduced
